Measurements from the supplement of paper PMC11208160.

Experiment: recombinant UMI read abundance after kanamycin selection (control-corrected) (log10(CPM+1)); higher = more efficient recombination; extreme values may be limits of the assay; sequences stand for … in AGTGCAGAGAAAATCGGCCAGTTTTCTCTGCCTGCAGTCCGCATGCCGTGGGACCCCTTGGGTTCTAACCTGTTGCCTAGATTTATGCAGCGGACTGCCTTTCTCCCAAAGTGATAAACCGG…AGGTTGGTTTCACT; site = the 11-nt donor
Procedure, shortened: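 Each donor and donor-binding-loop pair was tracked by a 12-nt UMI on a plasmid carrying a promoterless kanamycin gene. With a second plasmid supplying a fixed target and T7-inducible IS621 bridge recombinase, the pool was plated in Escherichia coli on IPTG (0.07 mM) plus kanamycin or unselected. Sequencing of recombinant UMIs across the donor–target junction gave counts expressed as log10(CPM+1) after replicate averaging and control-derived scaling.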
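Further: IS621 bridge recombinase in Escherichia coli cells against a fixed T5 target plasmid.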

TACTTGTCATGGACCGGTTTTCCCGGTAATCCGTATTTGCT (site TACTTGGCTAG)
recombinant UMI read abundance (log10): 0.00306

TACTTGTCATGGACCGGTTTTCCCGGTAATCCGTATTTGCT (site TACTTGTCTAG)
recombinant UMI read abundance (log10): 1.51

TACTTTCCATGGACCGGTTTTCCCGGTAATCCGTATTTGCC (site TACTTTCCTGG)
recombinant UMI read abundance (log10): 0

TAGAAAACATGGACCGGTTTTCCCGGTAATCCGTATTTGCA (site TAGAAAACTTG)
recombinant UMI read abundance (log10): 1.54

TAGAAAACATGGACCGGTTTTCCCGGTAATCCGTATTTGCA (site TAGAACACTTG)
recombinant UMI read abundance (log10): 1.57

TAGAAAACATGGACCGGTTTTCCCGGTAATCCGTATTTGCA (site TAGAAGACTTG)
recombinant UMI read abundance (log10): 0.00894

TAGAAAACATGGACCGGTTTTCCCGGTAATCCGTATTTGCA (site TAGAATACTTG)
recombinant UMI read abundance (log10): 0

TAGAAGACATGGACCGGTTTTCCCGGTAATCCGTATTTGCA (site TAGAAAACTTG)
recombinant UMI read abundance (log10): 0

TAGAAGACATGGACCGGTTTTCCCGGTAATCCGTATTTGCA (site TAGAACACTTG)
recombinant UMI read abundance (log10): 0.985

TAGAAGACATGGACCGGTTTTCCCGGTAATCCGTATTTGCA (site TAGAAGACTTG)
recombinant UMI read abundance (log10): 2.51

TAGAAGACATGGACCGGTTTTCCCGGTAATCCGTATTTGCA (site TAGAATACTTG)
recombinant UMI read abundance (log10): 0

TAGAATACATGGACCGGTTTTCCCGGTAATCCGTATTTGCG (site TAGAATACTAG)
recombinant UMI read abundance (log10): 0

TAGAATACATGGACCGGTTTTCCCGGTAATCCGTATTTGCG (site TAGAATACTCG)
recombinant UMI read abundance (log10): 2.06

TAGAATACATGGACCGGTTTTCCCGGTAATCCGTATTTGCG (site TAGAATACTGG)
recombinant UMI read abundance (log10): 0

TAGAATACATGGACCGGTTTTCCCGGTAATCCGTATTTGCG (site TAGAATACTTG)
recombinant UMI read abundance (log10): 0.239

TAGAATTCATGGACCGGTTTTCCCGGTAATCCGTATTTGTA (site TAGAATTCTTA)
recombinant UMI read abundance (log10): 1.67

TAGACTACATGGACCGGTTTTCCCGGTAATCCGTATTTGCA (site TAGAATACTTG)
recombinant UMI read abundance (log10): 0.379

TAGACTACATGGACCGGTTTTCCCGGTAATCCGTATTTGCA (site TAGACTACTTG)
recombinant UMI read abundance (log10): 1.62

TAGACTACATGGACCGGTTTTCCCGGTAATCCGTATTTGCA (site TAGAGTACTTG)
recombinant UMI read abundance (log10): 0.0124

TAGACTACATGGACCGGTTTTCCCGGTAATCCGTATTTGCA (site TAGATTACTTG)
recombinant UMI read abundance (log10): 0.502

TAGATTACATGGACCGGTTTTCCCGGTAATCCGTATTTGTA (site TAGATTACTTA)
recombinant UMI read abundance (log10): 0.528

TAGCAAGCATGGACCGGTTTTCCCGGTAATCCGTATTTGAA (site TAGCAAGCTTT)
recombinant UMI read abundance (log10): 1.45

TAGCAAGCATGGACCGGTTTTCCCGGTAATCCGTATTTGAA (site TAGCCAGCTTT)
recombinant UMI read abundance (log10): 0.0116

TAGCAAGCATGGACCGGTTTTCCCGGTAATCCGTATTTGAA (site TAGCGAGCTTT)
recombinant UMI read abundance (log10): 0.00665

TAGCAAGCATGGACCGGTTTTCCCGGTAATCCGTATTTGAA (site TAGCTAGCTTT)
recombinant UMI read abundance (log10): 0.00716

TAGCATACATGGACCGGTTTTCCCGGTAATCCGTATTTGCA (site TAGAATACTTG)
recombinant UMI read abundance (log10): 0

TAGCATACATGGACCGGTTTTCCCGGTAATCCGTATTTGCA (site TAGCATACTTG)
recombinant UMI read abundance (log10): 1.62

TAGCATACATGGACCGGTTTTCCCGGTAATCCGTATTTGCA (site TAGGATACTTG)
recombinant UMI read abundance (log10): 0

TAGCATACATGGACCGGTTTTCCCGGTAATCCGTATTTGCA (site TAGTATACTTG)
recombinant UMI read abundance (log10): 0.507

TAGCATTCATGGACCGGTTTTCCCGGTAATCCGTATTTGGT (site TAGCATTCTAC)
recombinant UMI read abundance (log10): 1.23

TAGCATTCATGGACCGGTTTTCCCGGTAATCCGTATTTGGT (site TAGCCTTCTAC)
recombinant UMI read abundance (log10): 0.00694

TAGCATTCATGGACCGGTTTTCCCGGTAATCCGTATTTGGT (site TAGCGTTCTAC)
recombinant UMI read abundance (log10): 0.0097

TAGCATTCATGGACCGGTTTTCCCGGTAATCCGTATTTGGT (site TAGCTTTCTAC)
recombinant UMI read abundance (log10): 0

TAGCCATCATGGACCGGTTTTCCCGGTAATCCGTATTTGGT (site TAGCCATCTAC)
recombinant UMI read abundance (log10): 0.74

TAGCCATCATGGACCGGTTTTCCCGGTAATCCGTATTTGGT (site TAGCCCTCTAC)
recombinant UMI read abundance (log10): 0.0197

TAGCCATCATGGACCGGTTTTCCCGGTAATCCGTATTTGGT (site TAGCCGTCTAC)
recombinant UMI read abundance (log10): 0.0186

TAGCCATCATGGACCGGTTTTCCCGGTAATCCGTATTTGGT (site TAGCCTTCTAC)
recombinant UMI read abundance (log10): 0.0124

TAGCCCTCATGGACCGGTTTTCCCGGTAATCCGTATTTGGT (site TAGCCATCTAC)
recombinant UMI read abundance (log10): 0.00538

TAGCCCTCATGGACCGGTTTTCCCGGTAATCCGTATTTGGT (site TAGCCCTCTAC)
recombinant UMI read abundance (log10): 1.12

TAGCCCTCATGGACCGGTTTTCCCGGTAATCCGTATTTGGT (site TAGCCGTCTAC)
recombinant UMI read abundance (log10): 0.0119

TAGCCCTCATGGACCGGTTTTCCCGGTAATCCGTATTTGGT (site TAGCCTTCTAC)
recombinant UMI read abundance (log10): 0

TAGCCGACATGGACCGGTTTTCCCGGTAATCCGTATTTGAC (site TAGCCGACTGT)
recombinant UMI read abundance (log10): 2.63

TAGCCGGCATGGACCGGTTTTCCCGGTAATCCGTATTTGGC (site TAGCCGGCTGC)
recombinant UMI read abundance (log10): 1.62

TAGCCGGCATGGACCGGTTTTCCCGGTAATCCGTATTTGGC (site TCGCCGGCTGC)
recombinant UMI read abundance (log10): 0

TAGCCGGCATGGACCGGTTTTCCCGGTAATCCGTATTTGGC (site TGGCCGGCTGC)
recombinant UMI read abundance (log10): 0

TAGCCGGCATGGACCGGTTTTCCCGGTAATCCGTATTTGGC (site TTGCCGGCTGC)
recombinant UMI read abundance (log10): 0

TAGCCTCCATGGACCGGTTTTCCCGGTAATCCGTATTTGTT (site TAGCCTCCTAA)
recombinant UMI read abundance (log10): 0.0845

TAGCCTGCATGGACCGGTTTTCCCGGTAATCCGTATTTGAT (site TAGCCTGCTAT)
recombinant UMI read abundance (log10): 0.0647

TAGCGCGCATGGACCGGTTTTCCCGGTAATCCGTATTTGTC (site TAGCGCGCTGA)
recombinant UMI read abundance (log10): 2.77

TAGCTAGCATGGACCGGTTTTCCCGGTAATCCGTATTTGAC (site TAGCTAGCTAT)
recombinant UMI read abundance (log10): 0.556

TAGCTAGCATGGACCGGTTTTCCCGGTAATCCGTATTTGAC (site TAGCTAGCTCT)
recombinant UMI read abundance (log10): 0

TAGCTAGCATGGACCGGTTTTCCCGGTAATCCGTATTTGAC (site TAGCTAGCTGT)
recombinant UMI read abundance (log10): 2.34

TAGCTAGCATGGACCGGTTTTCCCGGTAATCCGTATTTGAC (site TAGCTAGCTTT)
recombinant UMI read abundance (log10): 0.388

TAGCTAGCATGGACCGGTTTTCCCGGTAATCCGTATTTGAG (site TAGCTAGCTAT)
recombinant UMI read abundance (log10): 0.457

TAGCTAGCATGGACCGGTTTTCCCGGTAATCCGTATTTGAG (site TAGCTAGCTCT)
recombinant UMI read abundance (log10): 0.921

TAGCTAGCATGGACCGGTTTTCCCGGTAATCCGTATTTGAG (site TAGCTAGCTGT)
recombinant UMI read abundance (log10): 0

TAGCTAGCATGGACCGGTTTTCCCGGTAATCCGTATTTGAG (site TAGCTAGCTTT)
recombinant UMI read abundance (log10): 0.014
